Assays:
GAT-1 [1] = assay: GAT-1 protein expression in brain regions of SLC6A1^+/A288V heterozygous mice; format: in vivo, mouse; details: A288V het; cerebellum; PBA 100 mg/kg, 7 days
From the text: FIGS. 8C-D show integrated density values (IDVs) for total GAT-1 from wild-type and het KI were normalized to the Na^+/K^+ ATPase or anti-glyceraldehyde-3-phosphate dehydrogenase (GAPDH) loading control (LC) in each specific brain region and plotted. N=4 from 4 pairs of mice. […] The vehicle treated in each brain region was taken as 1. N=4 from 4 pairs of mice for FIG. 8C, FIG. 8D, FIG. 8G and FIG. 8H, Values were expressed as mean±S.E.M. One way ANOVA or unpaired t test.
The working solution was stored at 4° C.
Data were expressed as mean±SEM. Proteins were quantified by Odyssey software and data were normalized to loading controls and then to the wildtype subunit protein, which was arbitrarily taken as 1 in each experiment. Fluorescence intensities from confocal microscopy experiments were determined using MetaMorph imaging software, and the measurements were carried out in ImageJ. For statistical significance, one-way or two-way analysis of variance (ANOVA) with post hoc Dunnett or Newman-Keuls test were used. In some cases, unpaired t-test or one sample t-test was performed (GraphPad Prism, La Jolla, CA), and statistical significance was taken as p<0.05.

GAT-1 [2] = target: T1, GAT-1 (Mus musculus, UniProt P31648); assay: 3H GABA uptake, cortical astrocytes cultured from wildtype pups; format: cell-based; details: wt astrocytes (pooled from two mouse lines); PBA 2 mM, 24 hr; SNAP5114 30 μM
T1 construct: endogenous in cells; host or cells: primary cortical astrocytes from wild-type littermate pups (C57BL/6J background), passage 2
Method: Mouse cortical astrocytes or neurons were cultured from postnatal pus at day 0-3 days old for astrocytes and day 0 for neurons from the SLC6A1^+/A288V or SLC6A1^+/S295L mouse line. FIGS. 7A-B show astrocytes under passage 2 were grown in […] dishes and passaged into 35-mm^2 dishes before GABA uptake assay.
FIGS. 7C-D show neurons directly cultured in the 35-mm^2 dishes and GABA uptake was evaluated between day 15-17 days after culture. CI-966 (50 μM) and NNC711 (35 μM) was applied 30 min before preincubation and removed during preincubation. GAT-3 inhibitor SNAP5114 (30 μM) was applied during GABA uptake to make sure only GAT-1 activity was measured. The wildtype astrocytes (FIGS. 7A-B) or cortical neurons (FIGS. 7C-D) of either SLC6A1^+/A288V or SLC6A1^+/S295L were taken as 1. The cultures derived from each mutant mouse was compared to the culture from its own wildtype littermates. […] The wildtype data were pooled from two mouse lines. […] The graph represents the relative GABA uptake level normalized to cells of its own genotype treated with DMSO. CI-966 (50 μM) or NNC-711 (35 μM) was applied 30 min before preincubation and removed during preincubation. Two-way analysis of variance followed by Bonferroni multiple comparison test was used. Values were expressed as mean±S.E.M. In FIG. 7A and FIG. 7C, ***p<0.001 vs. wt; § § § P<0.001 S295L vs. A288V. […]

Question: What does the source list for `O=C(O)CCCc1ccccc1` [PBA, 4-phenylbutyric acid]?
Answer: GAT-1 expression vs. same brain region of vehicle treated mice taken as 1 (GAT-1 [1]): 1.045±0.028; GABA uptake activity normalized to its own DMSO condition (GAT-1 [2]): 1.22±0.058
